The test system of data set [1] is A549. The data set can be described thus: Antiproliferative activity against human A549 cells assessed as inhibition of cell proliferation by MTT assay. It counts as functional, cell-based. A general note: Tetrazolium dyes change colour on reduction, which living cells bring about.
A short description of data set [2]: Cytotoxicity against mouse L929 cells assessed as inhibition of cell proliferation by MTT assay. It is filed as toxicity, cell-based.
For data set [3], the system named is PC-3. The data set can be described thus: Antiproliferative activity against human PC-3 cells assessed as inhibition of cell proliferation by MTT assay. It counts as functional, cell-based.
For data set [4], the system named is HepG2. The data set can be described thus: Antiproliferative activity against human HepG2 cells assessed as inhibition of cell proliferation by MTT assay. It counts as functional, cell-based.
Data set [5] relates to HepG2. The data set can be described thus: Potency index, ratio of PD IC50 to test compound IC50 for antiproliferative activity against human HepG2 cells assessed as inhibition of cell proliferation by MTT assay. It counts as functional.
The test system of data set [6] is HepG2. Briefly: Effect on cell morphology in human HepG2 cells at 5 uM by DAPI staining based analysis. It counts as functional.

pIC50: −log10 of the molar value. Activity calls are given as the source filed them. The calls are words filed in the database; no cut-off is given here.

In general, pIC50 refers to the negative decadic logarithm of the IC50, by convention in mol/L.

With `CC1(C)CCC[C@](C)([C@@H]2CC[C@]3(C)[C@@H]2[C@H](O)C[C@H]2[C@@]4(C)CC[C@H](OC(=O)CSc5nc(-c6ccncc6)c(C#N)c(=O)[nH]5)C(C)(C)[C@@H]4CC[C@]23C)O1`, the pIC50 in data set [1] was 4.76; in data set [2], 4.11; in data set [3], 4.80; in data set [4], 4.89.
In the same order, the values of `CC1(C)CCC[C@](C)([C@@H]2CC[C@]3(C)[C@@H]2[C@H](O)CC2[C@@]4(C)CC[C@H](OC(=O)CSc5nc(-c6cccc(Cl)c6)c(C#N)c(=O)[nH]5)C(C)(C)[C@@H]4CC[C@]23C)O1` (stereo not given in full) are 5.15, 4.13, 5.07 and 5.15.
In the case of `CC1(C)CCC[C@](C)([C@@H]2CC[C@]3(C)[C@@H]2[C@H](O)C[C@H]2[C@@]4(C)CC[C@H](OC(=O)CSc5nc6cc(Cl)ccc6c(=O)[nH]5)C(C)(C)[C@@H]4CC[C@]23C)O1`, the pIC50 in data set [1], in data set [2], in data set [3] and in data set [4] was under 4.00 in each case.
For the compound `CC1(C)CCC[C@](C)([C@@H]2CC[C@]3(C)[C@@H]2[C@H](O)CC2[C@@]4(C)CC[C@H](OC(=O)CSc5nc(-c6ccc(C(F)(F)F)cc6)c(C#N)c(=O)[nH]5)C(C)(C)[C@@H]4CC[C@]23C)O1` (stereo not given in full), the pIC50 is 5.15 in data set [1], 4.16 in data set [2], 5.06 in data set [3] and 5.50 in data set [4]. In data set [5], the “Ratio IC50” value is recorded as 21.
Take `CC1(C)CCC[C@](C)(C2CC[C@]3(C)[C@@H]2[C@H](O)C[C@H]2[C@@]4(C)CC[C@H](OC(=O)CSc5nc(-c6c[nH]c7ccccc67)c(C#N)c(=O)[nH]5)C(C)(C)[C@@H]4CC[C@]23C)O1` (stereo not given in full): the pIC50 was 5.14 in data set [1], 4.12 in data set [2], 4.97 in data set [3] and 5.28 in data set [4].
Take `O=c1[nH]cc(F)c(=O)[nH]1` [FLUOROURACIL]: the pIC50 in data set [1] is 4.54; in data set [2] it was under 4.00. Also, the result in data set [6] was inactive.
Consider `CC1(C)CCC[C@](C)([C@@H]2CC[C@]3(C)[C@@H]2[C@H](O)C[C@@H]2[C@@]4(C)CC[C@H](OC(=O)CSc5nc(-c6ccccc6)c(C#N)c(=O)[nH]5)C(C)(C)[C@@H]4CC[C@]23C)O1`, for which the pIC50 was 5.05 in data set [1], 4.13 in data set [2], 5.01 in data set [3] and 5.12 in data set [4].
Taken in the same sequence, the figures for `CC1(C)CCC[C@](C)([C@@H]2CC[C@]3(C)[C@@H]2[C@H](O)C[C@H]2[C@@]4(C)CC[C@H](OC(=O)CSc5nc(-c6cccc(O)c6)c(C#N)c(=O)[nH]5)C(C)(C)[C@@H]4CC[C@]23C)O1` were 4.84, 4.10, 4.68 and 5.03.
In the same order, the values of `CC1(C)CCC[C@](C)([C@@H]2CC[C@]3(C)[C@@H]2[C@H](O)CC2[C@@]4(C)CC[C@H](OC(=O)CSc5nc(-c6ccc(Cl)cc6)c(C#N)c(=O)[nH]5)C(C)(C)[C@@H]4CC[C@]23C)O1` (stereo not given in full) are 5.17, 4.11, 5.13 and 5.19.
Taken in the same sequence, the figures for `CC1(C)CCC[C@](C)([C@@H]2CC[C@]3(C)[C@@H]2[C@H](O)C[C@H]2[C@@]4(C)CC[C@H](OC(=O)CSc5nc6ccc(Cl)cc6c(=O)[nH]5)C(C)(C)[C@@H]4CC[C@]23C)O1` were under 4.00, under 4.00, under 4.00 and 4.09.
For the compound `CC1(C)CCC[C@](C)([C@@H]2CC[C@]3(C)[C@@H]2[C@H](O)C[C@H]2[C@@]4(C)CC[C@H](OC(=O)CSc5nc6ccc(F)cc6c(=O)[nH]5)C(C)(C)[C@@H]4CC[C@]23C)O1`, the pIC50 in data set [1] is 4.25; in data set [2] it was under 4.00; in data set [3], under 4.00; in data set [4] it was 4.15.
As to `Cc1ccc(-c2nc(SCC(=O)O[C@H]3CC[C@@]4(C)[C@@H](CC[C@]5(C)[C@H]4C[C@@H](O)[C@@H]4[C@H]([C@@]6(C)CCCC(C)(C)O6)CC[C@]45C)C3(C)C)[nH]c(=O)c2C#N)cc1`, the pIC50 in data set [1] is 5.17; in data set [2] it was 4.11; in data set [3], 5.11; in data set [4], 5.35. Besides, the “Ratio IC50” value in data set [5] was 12.
Regarding `Cc1cccc(-c2nc(SCC(=O)O[C@H]3CC[C@@]4(C)[C@@H](CC[C@]5(C)[C@H]4C[C@@H](O)[C@@H]4[C@H]([C@@]6(C)CCCC(C)(C)O6)CC[C@]45C)C3(C)C)[nH]c(=O)c2C#N)c1`, the pIC50 in data set [1] is 4.87; in data set [2], 4.11; in data set [3], 4.77; in data set [4], 4.85.
In the same order, the values of `CC1(C)CCC[C@](C)([C@@H]2CC[C@]3(C)[C@@H]2[C@H](O)CC2[C@@]4(C)CC[C@H](OC(=O)CSc5nc(-c6ccc(F)cc6)c(C#N)c(=O)[nH]5)C(C)(C)[C@@H]4CC[C@]23C)O1` (stereo not given in full) are 5.04, 4.12, 5.11 and 5.11.
In the same order, the values of `CC1(C)CCC[C@](C)([C@@H]2CC[C@]3(C)[C@@H]2[C@H](O)C[C@H]2[C@@]4(C)CC[C@H](OC(=O)CSc5nc6cccc(Cl)c6c(=O)[nH]5)C(C)(C)[C@@H]4CC[C@]23C)O1` are 4.08, under 4.00, under 4.00 and 4.17.
For `CC1(C)CCC[C@](C)([C@@H]2CC[C@]3(C)[C@@H]2[C@H](O)CC2[C@@]4(C)CC[C@H](OC(=O)CSc5nc(-c6ccc(Br)cc6)c(C#N)c(=O)[nH]5)C(C)(C)[C@@H]4CC[C@]23C)O1` (stereo not given in full), the pIC50 was 5.12 in data set [1], 4.11 in data set [2], 5.01 in data set [3] and 5.23 in data set [4].
In the same order, the values of `CC1(C)CCC[C@](C)([C@@H]2CC[C@]3(C)[C@@H]2[C@H](O)CC2[C@@]4(C)CC[C@H](OC(=O)CSc5nc(-c6cccc(F)c6)c(C#N)c(=O)[nH]5)C(C)(C)[C@@H]4CC[C@]23C)O1` (stereo not given in full) are 5.16, 4.12, 5.09 and 5.12.
In the same order, the values of `CC1(C)CCC[C@](C)([C@@H]2CC[C@]3(C)[C@@H]2[C@H](O)C[C@H]2[C@@]4(C)CC[C@H](OC(=O)CSc5nc6c(Cl)cccc6c(=O)[nH]5)C(C)(C)[C@@H]4CC[C@]23C)O1` are under 4.00, under 4.00, 4.21 and under 4.00.
Taken in the same sequence, the figures for `CC1(C)CCC[C@](C)([C@@H]2CC[C@]3(C)[C@@H]2[C@H](O)C[C@H]2[C@@]4(C)CC[C@H](O)C(C)(C)[C@@H]4CC[C@]23C)O1` were 4.23, under 4.00, 4.17 and 4.23.
For `COc1cc(-c2nc(SCC(=O)O[C@H]3CC[C@@]4(C)[C@@H](CC[C@]5(C)[C@H]4C[C@@H](O)[C@@H]4C([C@@]6(C)CCCC(C)(C)O6)CC[C@]45C)C3(C)C)[nH]c(=O)c2C#N)cc(OC)c1OC` (stereo not given in full), the pIC50 in data set [1] was 5.12; in data set [2], 4.11; in data set [3], 4.88; in data set [4] it was 5.11.
Taken in the same sequence, the figures for `CC1(C)CCC[C@](C)([C@@H]2CC[C@]3(C)[C@@H]2[C@H](O)CC2[C@@]4(C)CC[C@H](OC(=O)CSc5nc(-c6cccc(Br)c6)c(C#N)c(=O)[nH]5)C(C)(C)[C@@H]4CC[C@]23C)O1` (stereo not given in full) were 5.17, 4.15, 5.19 and 5.23.
For the compound `COc1ccc(-c2nc(SCC(=O)O[C@H]3CC[C@@]4(C)[C@@H](CC[C@]5(C)[C@H]4C[C@@H](O)[C@@H]4C([C@@]6(C)CCCC(C)(C)O6)CC[C@]45C)C3(C)C)[nH]c(=O)c2C#N)cc1` (stereo not given in full), the pIC50 in data set [1] was 5.16; in data set [2], 4.12; in data set [3] it was 5.02; in data set [4] it was 5.29.
Taken in the same sequence, the figures for `CC1(C)CCC[C@](C)([C@@H]2CC[C@]3(C)[C@@H]2[C@H](O)C[C@H]2[C@@]4(C)CC[C@H](OC(=O)CSc5nc6ccc([N+](=O)[O-])cc6c(=O)[nH]5)C(C)(C)[C@@H]4CC[C@]23C)O1` were under 4.00, under 4.00, under 4.00 and 4.22.
In the same order, the values of `CC1(C)CCC[C@](C)([C@@H]2CC[C@]3(C)[C@@H]2[C@H](O)C[C@H]2[C@@]4(C)CC[C@H](OC(=O)CSc5nc6ccc(Br)cc6c(=O)[nH]5)C(C)(C)[C@@H]4CC[C@]23C)O1` are under 4.00, under 4.00, under 4.00 and under 4.00.
Taken in the same sequence, the figures for `Cc1ccc2nc(SCC(=O)O[C@H]3CC[C@@]4(C)[C@@H](CC[C@]5(C)[C@H]4C[C@@H](O)[C@@H]4[C@H]([C@@]6(C)CCCC(C)(C)O6)CC[C@]45C)C3(C)C)[nH]c(=O)c2c1` were under 4.00, under 4.00, under 4.00 and under 4.00.
For the compound `COc1cccc(-c2nc(SCC(=O)O[C@H]3CC[C@]4(C)[C@H]5C[C@@H](O)[C@@H]6[C@H]([C@@]7(C)CCCC(C)(C)O7)CC[C@@]6(C)[C@]5(C)CC[C@H]4C3(C)C)[nH]c(=O)c2C#N)c1`, the pIC50 in data set [1] was 5.16; in data set [2], 4.19; in data set [3], 5.05; in data set [4], 5.16.

The record behind these values is ChEMBL document CHEMBL5236586, “Novel ginsenoside derivatives induce apoptosis in HepG-2 cells via the MDM2-p53 signaling pathway” (Bioorg Med Chem Lett, 2022).
